Here are results for nine molecules from PubChem BioAssay (NCI).

Several values for one entry are separate records, joined by “and”; a condition that tells them apart may be missing. Equal entries are not always repeated.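 Values below derive from 48-hour exposures of cells grown in 96-well plates, with endpoints linearly interpolated between the two concentrations bracketing the appropriate inhibition level. GI50: concentration for 50% inhibition of growth. TGI: concentration producing complete growth inhibition.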

Test systems include IGROV1 ovarian; SK-OV-3 ovarian; A498 renal; HL-60(TB) leukemia; COLO 205 colon; OVCAR-8 ovarian; SW-620 colon; SNB-75 CNS; DU-145 prostate; HT29 colon.
Test in all cases: DTP human tumour cell line panel, 48 h

By GI50 is commonly meant the concentration giving 50% growth inhibition. For orientation: TGI means the concentration at which net growth stops. Low readings indicate greater sensitivity of the cells, high ones lower sensitivity of the cells. In the case of `C=C1C(=O)O[C@H]2[C@H]1CC/C(COC(=O)c1cccnc1N)=C\CC[C@@]1(C)O[C@@H]21`, the GI50 in the experiment on IGROV1 ovarian is 2.56 µM; in the experiment on SK-OV-3 ovarian, 12.2 µM; with A498 renal it was 2.56 µM; with HL-60(TB) leukemia, 0.262 µM; in the experiment with COLO 205 colon, 1.77 µM; in the experiment with OVCAR-8 ovarian it was 4.2 µM. The GI50 with SW-620 colon was 0.583 µM; with SNB-75 CNS, 3.16 µM; in the experiment with DU-145 prostate it was 2.45 µM; in the experiment with HT29 colon it was 0.721 µM. In addition, the TGI worked out at 11.6 µM with IGROV1 ovarian; 73 µM with SK-OV-3 ovarian; 7.27 µM in the experiment with A498 renal; 0.749 µM in the experiment with HL-60(TB) leukemia; 3.68 µM in the experiment with COLO 205 colon; 16.3 µM in the experiment on OVCAR-8 ovarian. For the same molecule, the TGI in the experiment with SW-620 colon is 3.82 µM; in the experiment on SNB-75 CNS, 17.8 µM; in the experiment with DU-145 prostate, 12.7 µM; in the experiment with HT29 colon, 11 µM.
On to `CC1(C)C(N2CCOCC2)CS1(=O)=O` (configuration not stated), for which the TGI in the experiment with IGROV1 ovarian, in the experiment on SK-OV-3 ovarian, in the experiment on A498 renal, in the experiment with HL-60(TB) leukemia, with COLO 205 colon and in the experiment on OVCAR-8 ovarian was over 10 µM in each case. For the same molecule, the TGI with SW-620 colon, in the experiment with SNB-75 CNS, in the experiment with DU-145 prostate and with HT29 colon was over 10 µM in each case.
Turning to `Cc1cc(O)ccc1C1=NN(c2ccc(S(N)(=O)=O)cc2)C(=O)CC1`, the GI50 in the experiment on IGROV1 ovarian was 6.75 µM and 9.07 µM; in the experiment on SK-OV-3 ovarian, 10.8 µM and 51.7 µM; in the experiment with A498 renal it was 9.08 µM and 77.2 µM; in the experiment with HL-60(TB) leukemia it was 1.85 µM and 5 µM; in the experiment with COLO 205 colon it was 8.8 µM and 36.6 µM; in the experiment with OVCAR-8 ovarian it was 15.4 µM and 46.2 µM. Besides, the GI50 in the experiment on SW-620 colon is 2.34 µM and 8.64 µM; with SNB-75 CNS it was 2.95 µM and 16.3 µM; in the experiment on DU-145 prostate, 15.1 µM and 46.3 µM; with HT29 colon, 2.52 µM and 4.65 µM. Further, the TGI in the experiment with IGROV1 ovarian was 50 µM and > 100 µM; in the experiment on SK-OV-3 ovarian, 50 µM and > 100 µM; with A498 renal, 50 µM and > 100 µM; in the experiment with HL-60(TB) leukemia, 50 µM and > 100 µM; in the experiment on COLO 205 colon it was 50 µM and > 100 µM; with OVCAR-8 ovarian, 50 µM and > 100 µM. Moreover, the TGI is 50 µM and > 100 µM in the experiment with SW-620 colon; 21.5 µM and 82.9 µM in the experiment with SNB-75 CNS; 50 µM and > 100 µM with DU-145 prostate; 50 µM and > 100 µM with HT29 colon.
Take `NC(=O)c1c(NC(=O)c2cccs2)sc2c1CCC(=O)C2`: the GI50 with IGROV1 ovarian was 1.98 µM; in the experiment with A498 renal, 6 µM; in the experiment on HL-60(TB) leukemia it was 2.45 µM; in the experiment on OVCAR-8 ovarian it was 3.02 µM; with SW-620 colon, 0.809 µM; with SNB-75 CNS, 1.7 µM. Also, the GI50 in the experiment with DU-145 prostate is 4.13 µM; in the experiment with HT29 colon, 3.12 µM. The TGI is 36.7 µM in the experiment with IGROV1 ovarian; 52.9 µM in the experiment with A498 renal; 7.13 µM in the experiment with HL-60(TB) leukemia; over 100 µM with OVCAR-8 ovarian; 16.8 µM with SW-620 colon; 9.05 µM in the experiment with SNB-75 CNS. Also, the TGI with DU-145 prostate and in the experiment on HT29 colon was over 100 µM in each case.
Take `Nc1[nH]nc2nc(-c3cc(Cl)ccc3Cl)cc(-c3ccc(F)cc3)c12`: the GI50 was 19 µM with IGROV1 ovarian; 20.4 µM in the experiment with A498 renal; 16.5 µM in the experiment with COLO 205 colon; 14.3 µM with OVCAR-8 ovarian; 25.4 µM in the experiment with SW-620 colon; 51.5 µM with SNB-75 CNS. The GI50 with DU-145 prostate is 23.6 µM; in the experiment on HT29 colon it was 32.5 µM. Besides, the TGI was 48.7 µM in the experiment with IGROV1 ovarian; 42.2 µM in the experiment on A498 renal; 34.1 µM with COLO 205 colon; 59.5 µM in the experiment on OVCAR-8 ovarian; 68.7 µM with SW-620 colon; over 100 µM with SNB-75 CNS. Also, the values for the TGI in the experiment with DU-145 prostate and in the experiment on HT29 colon were 53.8 µM and over 100 µM, respectively.
As for `COC(=O)[C@]12CC[C@@H](C)[C@H](C)[C@@H]1C1=CC[C@@H]3[C@@]4(C)C(C=O)=C[C@@](C)(CO)[C@@H]4[C@H](O)C[C@@]3(C)[C@]1(C)CC2`, the GI50 in the experiment on IGROV1 ovarian is 4.25 µM; in the experiment with SK-OV-3 ovarian, 17 µM; with A498 renal, 6.37 µM; in the experiment on COLO 205 colon, 2.17 µM; with OVCAR-8 ovarian it was 3.51 µM; in the experiment with SW-620 colon, 4.23 µM. The GI50 in the experiment with SNB-75 CNS is 2.72 µM; in the experiment with DU-145 prostate it was 4.77 µM; in the experiment with HT29 colon, 2.44 µM. In addition, the TGI in the experiment with IGROV1 ovarian came to 21 µM; in the experiment with SK-OV-3 ovarian, 31.6 µM; in the experiment on A498 renal it was 19.4 µM; in the experiment with COLO 205 colon, 4.93 µM; in the experiment on OVCAR-8 ovarian, 14.4 µM; in the experiment on SW-620 colon, 15.8 µM. In addition, the TGI is 19.3 µM in the experiment with SNB-75 CNS, 16.5 µM in the experiment with DU-145 prostate and 7.54 µM with HT29 colon.
Turning to `Nc1ccccc1C#C/C=C\C#Cc1ccccc1C#CCO`, the GI50 was 0.382 µM in the experiment with IGROV1 ovarian; 12.1 µM with SK-OV-3 ovarian; 8.49 µM with HL-60(TB) leukemia; 11.8 µM with COLO 205 colon; 8.36 µM with OVCAR-8 ovarian; 4.4 µM in the experiment with SW-620 colon. In addition, the GI50 is 18 µM in the experiment with SNB-75 CNS and 15.8 µM with DU-145 prostate. In addition, the total growth inhibition concentration (TGI) in the experiment on IGROV1 ovarian was over 50 µM; in the experiment on SK-OV-3 ovarian, 27 µM; in the experiment with HL-60(TB) leukemia it was over 50 µM; with COLO 205 colon it was 31.6 µM; in the experiment with OVCAR-8 ovarian, 27.1 µM; with SW-620 colon, 35.8 µM. Also, the TGI with SNB-75 CNS is 42.1 µM; with DU-145 prostate, over 50 µM.
Turning to `CCN(CC)CCNC(=O)c1cccc2c1-c1ccccc1C2=O`, the GI50 in the experiment with IGROV1 ovarian is over 100 µM; in the experiment on SK-OV-3 ovarian, over 100 µM; in the experiment with A498 renal, over 100 µM; in the experiment on COLO 205 colon it was over 100 µM; in the experiment on OVCAR-8 ovarian, over 100 µM; with SW-620 colon it was 90.1 µM. In addition, the GI50 in the experiment on SNB-75 CNS, in the experiment with DU-145 prostate and in the experiment with HT29 colon was over 100 µM in each case. The TGI in the experiment with IGROV1 ovarian, in the experiment with SK-OV-3 ovarian, with A498 renal, with COLO 205 colon, in the experiment with OVCAR-8 ovarian and in the experiment on SW-620 colon was over 100 µM in each case. For the same molecule, the TGI with SNB-75 CNS, in the experiment with DU-145 prostate and with HT29 colon was over 100 µM each time.
As to `COc1ccc(Oc2nc3cc(N)cc(N)c3nc2-c2ccccc2)cc1`, the GI50 was 24.9 µM in the experiment on IGROV1 ovarian; 25.5 µM with SK-OV-3 ovarian; 49.3 µM in the experiment with A498 renal; 15.4 µM in the experiment on HL-60(TB) leukemia; over 100 µM in the experiment with COLO 205 colon; 32.3 µM with OVCAR-8 ovarian. For the same molecule, the GI50 in the experiment with SW-620 colon was 88.2 µM; in the experiment with DU-145 prostate, 69.4 µM; in the experiment with HT29 colon, 39.9 µM. The concentration for total growth inhibition (TGI) is over 100 µM in the experiment on IGROV1 ovarian; 55 µM with SK-OV-3 ovarian; over 100 µM in the experiment with A498 renal; over 100 µM in the experiment on HL-60(TB) leukemia; over 100 µM with COLO 205 colon; over 100 µM with OVCAR-8 ovarian. Also, the TGI in the experiment on SW-620 colon, with DU-145 prostate and in the experiment on HT29 colon was over 100 µM throughout.
